In PubChem BioAssay (NCI):
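Dose response: 5 concentrations. Exposure: 48 h. Format: 96-well plates. Endpoint: linear interpolation; highest concentration if not reached. GI50 = concentration required for 50% inhibition of growth. TGI denotes the concentration required for complete inhibition of growth.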

Tests used:
Test in all cases: inhibition of tumour cell growth, NCI panel, 48 h
786-0 renal = test system: 786-0 renal
A498 renal = test system: A498 renal
A549 NSCLC = test system: A549 NSCLC
ACHN renal = test system: ACHN renal
BT-549 breast = test system: BT-549 breast
CAKI-1 renal = test system: CAKI-1 renal
COLO 205 colon = test system: COLO 205 colon
DU-145 prostate = test system: DU-145 prostate
EKVX NSCLC = test system: EKVX NSCLC
HCC-2998 colon = test system: HCC-2998 colon
HCT-116 colon = test system: HCT-116 colon
HCT-15 colon = test system: HCT-15 colon
HL-60(TB) leukemia = test system: HL-60(TB) leukemia
HOP-62 NSCLC = test system: HOP-62 NSCLC
HOP-92 NSCLC = test system: HOP-92 NSCLC
HS 578T breast = test system: HS 578T breast
HT29 colon = test system: HT29 colon
IGROV1 ovarian = test system: IGROV1 ovarian
K-562 leukemia = test system: K-562 leukemia
KM12 colon = test system: KM12 colon
LOX IMVI melanoma = test system: LOX IMVI melanoma
M14 melanoma = test system: M14 melanoma
MALME-3M melanoma = test system: MALME-3M melanoma
MCF7 breast = test system: MCF7 breast
MDA-MB-231 breast = test system: MDA-MB-231 breast
MDA-MB-435 = test system: MDA-MB-435
MOLT-4 leukemia = test system: MOLT-4 leukemia
NCI-H226 lung = test system: NCI-H226 lung
NCI-H23 lung = test system: NCI-H23 lung
NCI-H460 lung = test system: NCI-H460 lung
NCI/ADR-RES ovarian = test system: NCI/ADR-RES ovarian
OVCAR-3 ovarian = test system: OVCAR-3 ovarian
OVCAR-4 ovarian = test system: OVCAR-4 ovarian
OVCAR-5 ovarian = test system: OVCAR-5 ovarian
OVCAR-8 ovarian = test system: OVCAR-8 ovarian
PC-3 prostate = test system: PC-3 prostate
RPMI-8226 leukemia = test system: RPMI-8226 leukemia
RXF 393 renal = test system: RXF 393 renal
SF-268 CNS = test system: SF-268 CNS
SF-295 CNS = test system: SF-295 CNS
SF-539 CNS = test system: SF-539 CNS
SK-MEL-2 melanoma = test system: SK-MEL-2 melanoma
SK-MEL-28 melanoma = test system: SK-MEL-28 melanoma
SK-MEL-5 melanoma = test system: SK-MEL-5 melanoma
SK-OV-3 ovarian = test system: SK-OV-3 ovarian
SN12C renal = test system: SN12C renal
SNB-19 CNS = test system: SNB-19 CNS
SNB-75 CNS = test system: SNB-75 CNS
SR leukemia = test system: SR leukemia
SW-620 colon = test system: SW-620 colon
T-47D breast = test system: T-47D breast
TK-10 renal = test system: TK-10 renal
U251 CNS = test system: U251 CNS
UACC-257 melanoma = test system: UACC-257 melanoma
UACC-62 melanoma = test system: UACC-62 melanoma
UO-31 renal = test system: UO-31 renal

Structure (SMILES): Cc1cc(I)cc(CN(C)CCCN2CCOCC2)c1O
- GI50 (786-0 renal): 27.6 µM
- TGI (786-0 renal): > 100 µM
- GI50 (A498 renal): 19.1 µM
- TGI (A498 renal): 48.6 µM
- GI50 (A549 NSCLC): 59.4 µM
- TGI (A549 NSCLC): > 100 µM
- GI50 (ACHN renal): > 100 µM
- TGI (ACHN renal): > 100 µM
- GI50 (BT-549 breast): 13.9 µM
- TGI (BT-549 breast): 85.5 µM
- GI50 (CAKI-1 renal): 29.4 µM
- TGI (CAKI-1 renal): > 100 µM
- GI50 (COLO 205 colon): 14.1 µM
- TGI (COLO 205 colon): 29 µM
- GI50 (DU-145 prostate): > 100 µM
- TGI (DU-145 prostate): > 100 µM
- GI50 (EKVX NSCLC): 72.4 µM
- TGI (EKVX NSCLC): > 100 µM
- GI50 (HCC-2998 colon): 35.4 µM
- TGI (HCC-2998 colon): > 100 µM
- GI50 (HCT-116 colon): 24 µM
- TGI (HCT-116 colon): > 100 µM
- GI50 (HCT-15 colon): 29 µM
- TGI (HCT-15 colon): > 100 µM
- GI50 (HL-60(TB) leukemia): 27.7 µM
- TGI (HL-60(TB) leukemia): 72 µM
- GI50 (HOP-62 NSCLC): 38.6 µM
- TGI (HOP-62 NSCLC): > 100 µM
- GI50 (HOP-92 NSCLC): 15.7 µM
- TGI (HOP-92 NSCLC): 98.2 µM
- GI50 (HS 578T breast): 13.5 µM
- TGI (HS 578T breast): > 100 µM
- GI50 (HT29 colon): 16.5 µM
- TGI (HT29 colon): 33.6 µM
- GI50 (IGROV1 ovarian): 20.7 µM
- TGI (IGROV1 ovarian): 72.6 µM
- GI50 (K-562 leukemia): 18 µM
- TGI (K-562 leukemia): 39.5 µM
- GI50 (KM12 colon): 29.6 µM
- TGI (KM12 colon): > 100 µM
- GI50 (LOX IMVI melanoma): 29.8 µM
- TGI (LOX IMVI melanoma): > 100 µM
- GI50 (M14 melanoma): 16 µM
- TGI (M14 melanoma): 32.3 µM
- GI50 (MALME-3M melanoma): 16.2 µM
- TGI (MALME-3M melanoma): 32.9 µM
- GI50 (MCF7 breast): 32.7 µM
- TGI (MCF7 breast): > 100 µM
- GI50 (MDA-MB-231 breast): 39.7 µM
- TGI (MDA-MB-231 breast): > 100 µM
- GI50 (MDA-MB-435): 26 µM
- TGI (MDA-MB-435): > 100 µM
- GI50 (MOLT-4 leukemia): 30.2 µM
- TGI (MOLT-4 leukemia): > 100 µM
- GI50 (NCI-H226 lung): 99.9 µM
- TGI (NCI-H226 lung): > 100 µM
- GI50 (NCI-H23 lung): 72.3 µM
- TGI (NCI-H23 lung): > 100 µM
- GI50 (NCI-H460 lung): 35.4 µM
- TGI (NCI-H460 lung): > 100 µM
- GI50 (NCI/ADR-RES ovarian): 67.5 µM
- TGI (NCI/ADR-RES ovarian): > 100 µM
- GI50 (OVCAR-3 ovarian): > 100 µM
- TGI (OVCAR-3 ovarian): > 100 µM
- GI50 (OVCAR-4 ovarian): 63.2 µM
- TGI (OVCAR-4 ovarian): > 100 µM
- GI50 (OVCAR-5 ovarian): 45.3 µM
- TGI (OVCAR-5 ovarian): > 100 µM
- GI50 (OVCAR-8 ovarian): > 100 µM
- TGI (OVCAR-8 ovarian): > 100 µM
- GI50 (PC-3 prostate): 42.9 µM
- TGI (PC-3 prostate): > 100 µM
- GI50 (RPMI-8226 leukemia): 17.8 µM
- TGI (RPMI-8226 leukemia): 46 µM
- GI50 (RXF 393 renal): 11.8 µM
- TGI (RXF 393 renal): 38.2 µM
- GI50 (SF-268 CNS): 38.3 µM
- TGI (SF-268 CNS): > 100 µM
- GI50 (SF-295 CNS): 25.1 µM
- TGI (SF-295 CNS): 74.8 µM
- GI50 (SF-539 CNS): 16.7 µM
- TGI (SF-539 CNS): 39.4 µM
- GI50 (SK-MEL-2 melanoma): 19.6 µM
- TGI (SK-MEL-2 melanoma): 38.5 µM
- GI50 (SK-MEL-28 melanoma): 17.4 µM
- TGI (SK-MEL-28 melanoma): 32.3 µM
- GI50 (SK-MEL-5 melanoma): 15.5 µM
- TGI (SK-MEL-5 melanoma): 28.9 µM
- GI50 (SK-OV-3 ovarian): 82.9 µM
- TGI (SK-OV-3 ovarian): > 100 µM
- GI50 (SN12C renal): > 100 µM
- TGI (SN12C renal): > 100 µM
- GI50 (SNB-19 CNS): 67.7 µM
- TGI (SNB-19 CNS): > 100 µM
- GI50 (SNB-75 CNS): 21 µM
- TGI (SNB-75 CNS): 87.4 µM
- GI50 (SR leukemia): 19.6 µM
- TGI (SR leukemia): 48 µM
- GI50 (SW-620 colon): 33.5 µM
- TGI (SW-620 colon): > 100 µM
- GI50 (T-47D breast): 29.1 µM
- TGI (T-47D breast): > 100 µM
- GI50 (TK-10 renal): 45.6 µM
- TGI (TK-10 renal): > 100 µM
- GI50 (U251 CNS): 36.3 µM
- TGI (U251 CNS): > 100 µM
- GI50 (UACC-257 melanoma): 21.6 µM
- TGI (UACC-257 melanoma): 44.8 µM
- GI50 (UACC-62 melanoma): 13.1 µM
- TGI (UACC-62 melanoma): 30.5 µM
- GI50 (UO-31 renal): 22.1 µM
- TGI (UO-31 renal): 94.4 µM
